Data reported in PubChem BioAssay (NCI).
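Exposure lasted 48 hours, with cells grown in 96-well plates and compounds tested at five concentrations. GI50: concentration for 50% inhibition of growth. TGI is the concentration that stops growth completely.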

Experiments:
Assay in all cases: NCI tumour cell line growth inhibition, 48 h
786-0 renal = system: 786-0 renal
A498 renal = system: A498 renal
ACHN renal = system: ACHN renal
BT-549 breast = system: BT-549 breast
CAKI-1 renal = system: CAKI-1 renal
CCRF-CEM leukemia = system: CCRF-CEM leukemia
COLO 205 colon = system: COLO 205 colon
DU-145 prostate = system: DU-145 prostate
EKVX NSCLC = system: EKVX NSCLC
HCC-2998 colon = system: HCC-2998 colon
HCT-116 colon = system: HCT-116 colon
HCT-15 colon = system: HCT-15 colon
HL-60(TB) leukemia = system: HL-60(TB) leukemia
HOP-62 NSCLC = system: HOP-62 NSCLC
HOP-92 NSCLC = system: HOP-92 NSCLC
HS 578T breast = system: HS 578T breast
HT29 colon = system: HT29 colon
IGROV1 ovarian = system: IGROV1 ovarian
K-562 leukemia = system: K-562 leukemia
KM12 colon = system: KM12 colon
LOX IMVI melanoma = system: LOX IMVI melanoma
M14 melanoma = system: M14 melanoma
MALME-3M melanoma = system: MALME-3M melanoma
MDA-MB-231 breast = system: MDA-MB-231 breast
MDA-MB-435 = system: MDA-MB-435
MDA-N = system: MDA-N
MOLT-4 leukemia = system: MOLT-4 leukemia
NCI-H226 lung = system: NCI-H226 lung
NCI-H23 lung = system: NCI-H23 lung
NCI-H460 lung = system: NCI-H460 lung
NCI-H522 lung = system: NCI-H522 lung
NCI/ADR-RES ovarian = system: NCI/ADR-RES ovarian
OVCAR-3 ovarian = system: OVCAR-3 ovarian
OVCAR-4 ovarian = system: OVCAR-4 ovarian
OVCAR-5 ovarian = system: OVCAR-5 ovarian
OVCAR-8 ovarian = system: OVCAR-8 ovarian
PC-3 prostate = system: PC-3 prostate
RPMI-8226 leukemia = system: RPMI-8226 leukemia
SF-268 CNS = system: SF-268 CNS
SF-295 CNS = system: SF-295 CNS
SK-MEL-2 melanoma = system: SK-MEL-2 melanoma
SK-MEL-28 melanoma = system: SK-MEL-28 melanoma
SK-MEL-5 melanoma = system: SK-MEL-5 melanoma
SK-OV-3 ovarian = system: SK-OV-3 ovarian
SN12C renal = system: SN12C renal
SNB-19 CNS = system: SNB-19 CNS
SNB-75 CNS = system: SNB-75 CNS
SR leukemia = system: SR leukemia
SW-620 colon = system: SW-620 colon
TK-10 renal = system: TK-10 renal
U251 CNS = system: U251 CNS
UACC-257 melanoma = system: UACC-257 melanoma
UACC-62 melanoma = system: UACC-62 melanoma
UO-31 renal = system: UO-31 renal
A549 NSCLC = system: A549 NSCLC
MCF7 breast = system: MCF7 breast
RXF 393 renal = system: RXF 393 renal
SF-539 CNS = system: SF-539 CNS
T-47D breast = system: T-47D breast

SMILES: CCN(CC)c1c(-c2c(OC(C)C)c(=O)c2=O)c(=O)n2ccsc2c1OC(C)=O
- TGI (786-0 renal): > 100 µM
- TGI (A498 renal): > 100 µM
- TGI (ACHN renal): > 100 µM
- TGI (BT-549 breast): > 100 µM
- TGI (CAKI-1 renal): > 100 µM
- TGI (CCRF-CEM leukemia): > 100 µM
- TGI (COLO 205 colon): > 100 µM
- TGI (DU-145 prostate): > 100 µM
- TGI (EKVX NSCLC): > 100 µM
- TGI (HCC-2998 colon): > 100 µM
- TGI (HCT-116 colon): > 100 µM
- TGI (HCT-15 colon): > 100 µM
- TGI (HL-60(TB) leukemia): > 100 µM
- TGI (HOP-62 NSCLC): > 100 µM
- TGI (HOP-92 NSCLC): > 100 µM
- TGI (HS 578T breast): > 100 µM
- TGI (HT29 colon): > 100 µM
- TGI (IGROV1 ovarian): > 100 µM
- TGI (K-562 leukemia): > 100 µM
- TGI (KM12 colon): > 100 µM
- TGI (LOX IMVI melanoma): > 100 µM
- TGI (M14 melanoma): > 100 µM
- TGI (MALME-3M melanoma): > 100 µM
- TGI (MDA-MB-231 breast): > 100 µM
- TGI (MDA-MB-435): > 100 µM
- TGI (MDA-N): > 100 µM
- TGI (MOLT-4 leukemia): > 100 µM
- TGI (NCI-H226 lung): > 100 µM
- TGI (NCI-H23 lung): > 100 µM
- TGI (NCI-H460 lung): > 100 µM
- TGI (NCI-H522 lung): > 100 µM
- TGI (NCI/ADR-RES ovarian): > 100 µM
- TGI (OVCAR-3 ovarian): > 100 µM
- TGI (OVCAR-4 ovarian): > 100 µM
- TGI (OVCAR-5 ovarian): > 100 µM
- TGI (OVCAR-8 ovarian): > 100 µM
- TGI (PC-3 prostate): > 100 µM
- TGI (RPMI-8226 leukemia): > 100 µM
- TGI (SF-268 CNS): > 100 µM
- TGI (SF-295 CNS): > 100 µM
- TGI (SK-MEL-2 melanoma): > 100 µM
- TGI (SK-MEL-28 melanoma): > 100 µM
- TGI (SK-MEL-5 melanoma): > 100 µM
- TGI (SK-OV-3 ovarian): > 100 µM
- TGI (SN12C renal): > 100 µM
- TGI (SNB-19 CNS): > 100 µM
- TGI (SNB-75 CNS): > 100 µM
- TGI (SR leukemia): > 100 µM
- TGI (SW-620 colon): > 100 µM
- TGI (TK-10 renal): > 100 µM
- TGI (U251 CNS): > 100 µM
- TGI (UACC-257 melanoma): > 100 µM
- TGI (UACC-62 melanoma): > 100 µM
- TGI (UO-31 renal): > 100 µM

SMILES: Cc1cc(NC(=O)NCCCOc2ccc(N3C(N)=NC(N)=NC3(C)C)cc2Cl)ccc1S(=O)(=O)F
- GI50 (786-0 renal): 2.46 µM
- TGI (786-0 renal): > 100 µM
- GI50 (A498 renal): 7.94 µM
- TGI (A498 renal): 99.9 µM
- GI50 (A549 NSCLC): 0.412 µM
- TGI (A549 NSCLC): > 100 µM
- GI50 (ACHN renal): 11.3 µM
- TGI (ACHN renal): > 100 µM
- GI50 (BT-549 breast): 4.85 µM
- TGI (BT-549 breast): 21.7 µM
- GI50 (CAKI-1 renal): > 63.7 µM
- TGI (CAKI-1 renal): > 100 µM
- GI50 (CCRF-CEM leukemia): 0.561 µM
- TGI (CCRF-CEM leukemia): > 63.5 µM
- GI50 (COLO 205 colon): 1.17 µM
- TGI (COLO 205 colon): 17.5 µM
- GI50 (DU-145 prostate): 0.786 µM
- TGI (DU-145 prostate): > 62.4 µM
- GI50 (EKVX NSCLC): 1.32 µM
- TGI (EKVX NSCLC): > 100 µM
- GI50 (HCC-2998 colon): 2.06 µM
- TGI (HCC-2998 colon): > 69.2 µM
- GI50 (HCT-116 colon): 0.37 µM
- TGI (HCT-116 colon): > 100 µM
- GI50 (HCT-15 colon): 39.2 µM
- TGI (HCT-15 colon): > 100 µM
- GI50 (HL-60(TB) leukemia): 0.647 µM
- TGI (HL-60(TB) leukemia): 28.9 µM
- GI50 (HOP-62 NSCLC): 2.24 µM
- TGI (HOP-62 NSCLC): 19.6 µM
- GI50 (HOP-92 NSCLC): 2.85 µM
- TGI (HOP-92 NSCLC): 45.6 µM
- GI50 (HS 578T breast): 2.77 µM
- TGI (HS 578T breast): 35 µM
- GI50 (HT29 colon): 0.333 µM
- TGI (HT29 colon): 53.9 µM
- GI50 (IGROV1 ovarian): 0.332 µM
- TGI (IGROV1 ovarian): > 68.8 µM
- GI50 (K-562 leukemia): 0.318 µM
- TGI (K-562 leukemia): > 100 µM
- GI50 (KM12 colon): 0.631 µM
- TGI (KM12 colon): 17 µM
- GI50 (LOX IMVI melanoma): 0.479 µM
- TGI (LOX IMVI melanoma): > 100 µM
- GI50 (M14 melanoma): 2.42 µM
- TGI (M14 melanoma): > 100 µM
- GI50 (MALME-3M melanoma): 1.84 µM
- TGI (MALME-3M melanoma): 25.4 µM
- GI50 (MCF7 breast): 0.614 µM
- TGI (MCF7 breast): 22.5 µM
- GI50 (MDA-MB-231 breast): 7.16 µM
- TGI (MDA-MB-231 breast): > 100 µM
- GI50 (MDA-MB-435): 0.577 µM
- TGI (MDA-MB-435): 33.2 µM
- GI50 (MOLT-4 leukemia): 1.14 µM
- TGI (MOLT-4 leukemia): > 96.1 µM
- GI50 (NCI-H226 lung): 12.6 µM
- TGI (NCI-H226 lung): > 100 µM
- GI50 (NCI-H23 lung): 0.951 µM
- TGI (NCI-H23 lung): > 66.8 µM
- GI50 (NCI-H460 lung): 0.259 µM
- TGI (NCI-H460 lung): 14.7 µM
- GI50 (NCI-H522 lung): 1.11 µM
- TGI (NCI-H522 lung): 25.2 µM
- GI50 (NCI/ADR-RES ovarian): > 100 µM
- TGI (NCI/ADR-RES ovarian): > 100 µM
- GI50 (OVCAR-3 ovarian): 2.79 µM
- TGI (OVCAR-3 ovarian): > 53.9 µM
- GI50 (OVCAR-4 ovarian): 2.34 µM
- TGI (OVCAR-4 ovarian): > 100 µM
- GI50 (OVCAR-5 ovarian): 0.883 µM
- TGI (OVCAR-5 ovarian): > 100 µM
- GI50 (OVCAR-8 ovarian): 2.52 µM
- TGI (OVCAR-8 ovarian): > 100 µM
- GI50 (PC-3 prostate): 0.376 µM
- TGI (PC-3 prostate): 44 µM
- GI50 (RPMI-8226 leukemia): 5.78 µM
- TGI (RPMI-8226 leukemia): > 100 µM
- GI50 (RXF 393 renal): 13.5 µM
- TGI (RXF 393 renal): > 100 µM
- GI50 (SF-268 CNS): 0.569 µM
- TGI (SF-268 CNS): > 58.9 µM
- GI50 (SF-295 CNS): 3.26 µM
- TGI (SF-295 CNS): > 100 µM
- GI50 (SF-539 CNS): 2.85 µM
- TGI (SF-539 CNS): 31.7 µM
- GI50 (SK-MEL-2 melanoma): 2.43 µM
- TGI (SK-MEL-2 melanoma): 65.9 µM
- GI50 (SK-MEL-28 melanoma): 1.93 µM
- TGI (SK-MEL-28 melanoma): 28.5 µM
- GI50 (SK-MEL-5 melanoma): 0.492 µM
- TGI (SK-MEL-5 melanoma): 11.1 µM
- GI50 (SK-OV-3 ovarian): 9.72 µM
- TGI (SK-OV-3 ovarian): > 82.3 µM
- GI50 (SN12C renal): 0.558 µM
- TGI (SN12C renal): > 100 µM
- GI50 (SNB-19 CNS): 0.92 µM
- TGI (SNB-19 CNS): > 54.7 µM
- GI50 (SNB-75 CNS): 1.2 µM
- TGI (SNB-75 CNS): 24.4 µM
- GI50 (SR leukemia): 0.369 µM
- TGI (SR leukemia): > 46.2 µM
- GI50 (SW-620 colon): 0.373 µM
- TGI (SW-620 colon): > 100 µM
- GI50 (T-47D breast): 4.82 µM
- TGI (T-47D breast): 61.9 µM
- GI50 (TK-10 renal): 3.11 µM
- TGI (TK-10 renal): > 100 µM
- GI50 (U251 CNS): 0.492 µM
- TGI (U251 CNS): 19.7 µM
- GI50 (UACC-257 melanoma): 4.09 µM
- TGI (UACC-257 melanoma): 30.9 µM
- GI50 (UACC-62 melanoma): 0.608 µM
- TGI (UACC-62 melanoma): 24.9 µM
- GI50 (UO-31 renal): > 82.4 µM
- TGI (UO-31 renal): > 100 µM
